Reference: ChEMBL document CHEMBL4130638, “Discovery of the Polyamine Conjugate with Benzo[ cd]indol-2(1 H)-one as a Lysosome-Targeted Antimetastatic Agent” (J Med Chem, 2018)
pIC50: −log10 of the molar value. Active and inactive are the calls of the source. The calls are words filed in the database; no cut-off is given here.

Columns and labels:
[1] = tested on: K562; assay: Growth inhibition of human K562 cells after 48 hrs by MTT assay; format: functional, cell-based; settings: K562, 48 h
[2] = tested on: HepG2; assay: Growth inhibition of human HepG2 cells after 48 hrs by MTT assay; format: functional, cell-based; settings: HepG2, 48 h
[3] = tested on: HCT-116; assay: Growth inhibition of human HCT116 cells after 48 hrs by MTT assay; format: functional, cell-based; settings: HCT-116, 48 h
[4] = tested on: SMMC-7721; assay: Growth inhibition of human SMMC7721 cells after 48 hrs by MTT assay; format: functional, cell-based; settings: SMMC-7721, 48 h
[5] = tested on: CT26; assay: Antimetastatic activity against mouse CT26 cells implanted in Balb/c mouse assessed as inhibition of pulmonary metastasis nodules at 5 mg/kg, iv for 7 consecutive days starting from day 8 post tumor implantation measured on day 15 post tumor implantation relative to control; format: functional
[6] = tested on: CT26; assay: Growth inhibition of mouse CT26 cells after 24 hrs by MTT assay; format: functional, cell-based
[7] = tested on: CT26; assay: Antimigratory activity against mouse CT26 cells at 10 uM after 24 hrs by crystal violet staining based transwell assay; format: functional, cell-based
[8] = tested on: Mus musculus; assay: Toxicity in Balb/c mouse implanted with mouse CT26 cells assessed as changes in body weight at 5 mg/kg, iv for 14 consecutive days starting from day 8 post tumor implantation; format: organism-based; settings: in vivo
[9] = tested on: CT26; assay: Induction of apoptosis in mouse CT26 cells assessed as early apoptotic cells at 10 uM after 24 hrs by annexin V-FITC/propidium iodide staining based flow cytometry (reference value: 3.91%); format: functional
[10] = tested on: HCT-116; assay: Downregulation of MMP2 protein expression in human HCT116 cells at 10 uM after 24 hrs by Western blot method; format: functional, cell-based
[11] = tested on: HCT-116; assay: Induction of apoptosis in human HCT116 cells assessed as live cells at 10 uM after 24 hrs by annexin V-FITC/propidium iodide staining based flow cytometry (reference value: 89.97%); format: functional
[12] = tested on: CT26; assay: Induction of apoptosis in mouse CT26 cells assessed as late apoptotic cells at 10 uM after 24 hrs by annexin V-FITC/propidium iodide staining based flow cytometry (reference value: 2.26%); format: functional
[13] = tested on: HCT-116; assay: Induction of apoptosis in human HCT116 cells assessed as late apoptotic cells at 10 uM after 24 hrs by annexin V-FITC/propidium iodide staining based flow cytometry (reference value: 2.03%); format: functional
[14] = tested on: Mus musculus; assay: Toxicity in Balb/c mouse implanted with mouse CT26 cells assessed as changes in body weight at 5 mg/kg, iv for 7 consecutive days starting from day 8 post tumor implantation; format: organism-based; settings: in vivo
[15] = tested on: CT26; assay: Induction of apoptosis in mouse CT26 cells assessed as live cells at 10 uM after 24 hrs by annexin V-FITC/propidium iodide staining based flow cytometry (reference value: 89.47%); format: functional
[16] = tested on: HCT-116; assay: Antimigratory activity against human HCT116 cells at 10 uM after 24 hrs by crystal violet staining based transwell assay; format: functional, cell-based
[17] = tested on: HCT-116; assay: Induction of apoptosis in human HCT116 cells assessed as necrotic cells at 10 uM after 24 hrs by annexin V-FITC/propidium iodide staining based flow cytometry (reference value: 3.9%); format: functional
[18] = tested on: HCT-116; assay: Induction of apoptosis in human HCT116 cells assessed as early apoptotic cells at 10 uM after 24 hrs by annexin V-FITC/propidium iodide staining based flow cytometry (reference value: 4.1%); format: functional
[19] = tested on: HCT-116; assay: Downregulation of beta-catenin protein expression in human HCT116 cells at 10 uM after 24 hrs by Western blot method; format: functional, cell-based
[20] = tested on: CT26; assay: Antitumor activity against mouse CT26 cells implanted in Balb/c mouse assessed as solid tumor growth inhibition at 5 mg/kg, iv for 14 consecutive days measured on day 15 relative to control; format: functional; settings: 360 h, read-out: TGI
[21] = tested on: HCT-116; assay: Growth inhibition of human HCT116 cells after 24 hrs by MTT assay; format: functional, cell-based
[22] = tested on: CT26; assay: Induction of apoptosis in mouse CT26 cells assessed as necrotic cells at 10 uM after 24 hrs by annexin V-FITC/propidium iodide staining based flow cytometry (reference value: 4.36%); format: functional

SMILES	pIC50 [1]	pIC50 [2]	pIC50 [3]	pIC50 [4]	also measured
CCCCN1C(=O)c2cccc3c(NC(=O)CNCCCCNCCCCNCCCCN)ccc1c23	< 4.30	4.79	< 4.30	4.75	
NCCCNCCCNCCCN1C(=O)c2cccc3cccc1c23	4.58	4.84	4.92	4.71	
NCCCNCCCN1C(=O)c2cccc3cccc1c23	4.94	< 4.30	4.77	4.71	
NCCCNCCCCNCCCN1C(=O)c2cccc3cccc1c23	4.54	4.59	4.95	4.58	
CCCCN1C(=O)c2cccc3c(NC(=O)CNCCCCN)ccc1c23	< 4.30	< 4.30	< 4.30	< 4.30	
CN(C)CCN1C(=O)c2cccc3cc(N)cc(c23)C1=O [AMONAFIDE]	4.70	4.93	5.14	4.99	inhibition in vivo at 5 mg/kg [5]: 66%; growth inhibition (GI) [6]: Dose-dependent effect; pIC50 ([6]; CT26, 24 h): 4.93; Activity [7]: Active; Activity [8]: Non-Toxic; Activity [9]: 27.2%; Activity [10]: Active; Activity [11]: 40.53%; Activity [12]: 20.3%; Activity [13]: 36.9%; Activity [14]: Non-Toxic; Activity [15]: 48.49%; Activity [16]: Active; Activity [17]: 7.6%; Activity [18]: 14.9%; Activity [19]: Active; inhibition in vivo at 5 mg/kg [20]: 20%; growth inhibition (GI) [21]: Dose-dependent effect; pIC50 ([21]; HCT-116, 24 h): 5.07; Activity [22]: 3.92%
CCCCN1C(=O)c2cccc3c(NC(=O)CNCCCNCCCNCCCN)ccc1c23	< 4.30	< 4.30	< 4.30	< 4.30	
CCCCN1C(=O)c2cccc3c(NC(=O)CNCCCNCCCN)ccc1c23	< 4.30	< 4.30	< 4.30	< 4.30	
CCCCN1C(=O)c2cccc3c(NC(=O)CNCCCCNCCCCN)ccc1c23	< 4.30	4.66	< 4.30	4.63	
NCCCCNCCCCN1C(=O)c2cccc3cccc1c23	< 4.30	< 4.30	< 4.30	4.36	
CCCCN1C(=O)c2cccc3c(CNCCCNCCCN)ccc1c23	4.63	5.49	4.55	5.25	
CCCCN1C(=O)c2cccc3c(CNCCCCN)ccc1c23	< 4.30	5.00	4.77	4.59	
